Laboratory results: PubChem BioAssay AID1159557 (GlaxoSmithKline (GSK), 2015)
Activity calls are given as the source filed them. No rule for the calls is given here.

The compounds below were run on Trypanosoma brucei growth inhibition (assay: trypanosome proliferation inhibitors (AID 1159557);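 also: parasites exposed to compound for 48 h before the resazurin readout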).

Point of comparison: `Fc1ccccc1N1C[C@H]2CCN(c3cccnc3)C[C@H]2C1`, IC50 32 µM. Against it:
- O=C(NCCc1csc(-c2ccc(F)cc2)n1)c1ccco1 — 80-fold lower, 0.4 µM
- COc1cc(C(C)C)c(S(C)(=O)=O)cc1C(=O)N1CCN(c2ccccc2Cl)CC1 — within 1.5-fold, 25 µM
- O=c1[nH]cnc2c([C@@H]3O[C@H](CO)[C@@H](O)[C@H]3O)[nH]nc12 — 10000-fold lower, 0.0032 µM
- Cc1ccc(S(=O)(=O)Cn2nnnc2C(c2cccnc2)N2CCN(c3ccccc3)CC2)cc1 (stereo not drawn) — the same, 32 µM
- CCN(CC)c1ccc(S(=O)(=O)N(CC)CC)c2nonc12 — within 1.5-fold, 25 µM
- CN(C)c1ccc(-c2cc3nccnc3c(OC[C@H]3CCCNC3)n2)cn1 — 16-fold lower, 2 µM
- Fc1ccc(Nc2nc(-c3ccccn3)cs2)cc1 — within 1.5-fold, 25 µM
- CC(C)Nc1nccc(-c2c(-c3ccc(F)cc3)ncn2C2CCOCC2)n1 — 6.4-fold lower, 5 µM
- COc1cc(Nc2nccc(Nc3onc(C)c3C)n2)cc(S(=O)(=O)C2CCOCC2)c1 — 64-fold lower, 0.5 µM
- Nc1nonc1-c1nc2cncc(C(=O)N3CC[C@H](N)C3)c2n1CC1CC1 — 51-fold lower, 0.63 µM
- Cc1c(CNC(=O)c2ccc(Cn3cc(Cl)c([N+](=O)[O-])n3)cc2)cnn1C — 6.4-fold lower, 5 µM
- CC(C(=O)Nc1ccccc1F)N(C)CC(=O)Nc1cccc2ccccc12 (stereo not drawn) — within 1.5-fold, 25 µM
- COc1ccc([N+](=O)[O-])cc1NC(=O)Nc1cccc(Cl)c1 — 5.1-fold lower, 6.3 µM
- O=C1NCCn2ccc(Nc3nc(NC4CCC(O)CC4)ncc3Cl)c21 (stereo not drawn) — 64-fold lower, 0.5 µM
- CCCc1cc(N)nc(-c2cc(CCC)cc(N)n2)c1 — 10-fold lower, 3.2 µM
- NC(=O)c1ccsc1NC(=O)c1ccc([N+](=O)[O-])s1 — 160-fold lower, 0.2 µM
- OC1CCC(Nc2nccc(-c3sc(C4CCOCC4)nc3-c3ccc(F)c(F)c3)n2)CC1 (stereo not drawn) — 16-fold lower, 2 µM
- O=C(Cn1cnc2cc([N+](=O)[O-])ccc2c1=O)NCCc1ccc(Cl)cc1Cl — 2.5-fold lower, 13 µM
- c1ccc(Nc2nc(-c3ccccn3)cc(N3CCOCC3)n2)cc1 — 2-fold lower, 16 µM
- N#CN1CC[C@@H](NC(=O)Nc2ccccc2Oc2ccccc2)C1 — 32-fold lower, 1 µM
- CNC(=O)Oc1ccc(C(=O)NCc2ccccc2)cc1OC(=O)NC — 250-fold lower, 0.13 µM
- CC(c1ccc2c(c1)CCCC2)N(C)c1ncc2c(N)nc(N)nc2n1 (stereo not drawn) — 2-fold lower, 16 µM
- Cc1nc(-c2ccc3c(c2)OCO3)sc1C(=O)NCc1ccc2c(c1)OCO2 — 3.2-fold lower, 10 µM
- O=C(NCCc1ccccc1Cl)c1cccn1-c1cccnc1 — the same, 32 µM
- O=C(Nc1ccc(C(=O)N2CCCC2c2ccc3c(c2)OCCCO3)cc1)c1ccco1 (stereo not drawn) — 160-fold lower, 0.2 µM
- O=C(Nc1ncc([N+](=O)[O-])s1)C1CC1 — 4.1-fold lower, 7.9 µM
- O=C(Nc1nc(-c2ccccn2)cs1)c1ccc(S(=O)(=O)N2CCCCC2)cc1 — 80-fold lower, 0.4 µM
- Cc1ccc2c(c1)-c1onc(C(=O)N3CCCCC3c3cccnc3)c1CO2 (stereo not drawn) — within 1.5-fold, 40 µM
- Cc1ccnc(NS(=O)(=O)c2ccc(NC(=O)c3ccc([N+](=O)[O-])s3)cc2)n1 — 160-fold lower, 0.2 µM
- COc1ccc(C2C3CCCCC3(O)CCN2CC(=O)Nc2ccc(Cl)cc2Cl)cc1 (stereo not drawn) — 4.1-fold lower, 7.9 µM
- COc1ccc2ncc(F)c(NC(=O)C3(O)CCC(NCc4ccc5c(c4)OCCO5)CC3)c2n1 (stereo not drawn) — 41-fold lower, 0.79 µM
- CC(C)(C)C(=O)NCCc1csc(-c2ccc(F)cc2)n1 — 51-fold lower, 0.63 µM
- Cc1cc(NC(=O)C2CCCCC2)n(-c2nc3c(c(=O)[nH]2)CCC3)n1 — 250-fold lower, 0.13 µM
- COc1ccc(S(=O)(=O)Nc2ccc(C(=O)Nc3nc(-c4ccccn4)cs3)cc2)cc1 — 41-fold lower, 0.79 µM
- Cc1ccc(CNC2CCN(C[C@@H]3Cn4c(=O)ccc5ccc(=O)n3c54)CC2)cc1F — 20-fold lower, 1.6 µM
- Oc1c(-c2n[nH]c(CCc3ccccc3)n2)ncc2cccnc12 — 41-fold lower, 0.79 µM
- Cc1ccc(NC(C)C(=O)Nc2ccc(C#N)cc2)cc1S(=O)(=O)N1CCCCC1 (stereo not drawn) — 4.1-fold lower, 7.9 µM
- O=C(CSc1nnc2ccc(-c3ccc(F)cc3)nn12)N1CCCCC1 — 80-fold lower, 0.4 µM
- Cc1ccc(Nc2nc(C3CCCN3Cc3ccn[nH]3)cs2)nc1 (stereo not drawn) — 41-fold lower, 0.79 µM
- O=c1ccn(-c2ccc([N+](=O)[O-])cc2Cl)c2ccc(F)cc12 — within 1.5-fold, 25 µM
- CNc1c(C(N)=O)c(-c2ccc3scnc3c2)nn1CC(F)(F)F — the same, 32 µM
- Cc1ccc(NC(=O)c2ccnc(N3CCCC3)c2)cc1-c1ccsc1C(N)=O — 510-fold lower, 0.063 µM
- Cc1ccc(Nc2nc(N)nc(CNC(c3nc4ccccc4[nH]3)C(C)C)n2)cc1 (stereo not drawn) — 4.1-fold lower, 7.9 µM
- Cc1[nH]n2c(=O)c3c(nc2c1-c1ccc(Br)cc1)CCCC3 — 80-fold lower, 0.4 µM
- Clc1ccc(OCCN2CCCCC2c2cccnc2)c(Cl)c1 (stereo not drawn) — the same, 32 µM
- Cc1cc(Br)cc(C(=O)c2c(C(C)C)c(=O)[nH]c(=O)n2Cc2ccnc(N)c2)c1 — 2.5-fold lower, 13 µM
- O=C(CN1CCN(c2ccccn2)CC1)Nc1cc(S(=O)(=O)N2CCCCCC2)ccc1Cl — 2.5-fold lower, 13 µM
- Cc1nn2c(NCCCO)c3c(nc2c1-c1cccs1)CCC3 — 100-fold lower, 0.32 µM
- CN(C)S(=O)(=O)c1ccc(Cl)c(C(=O)Nc2nc(-c3ccccn3)cs2)c1 — 64-fold lower, 0.5 µM
- CC(=O)Nc1ccc(-c2cnc(N)c(-c3nc4ccc(F)cc4[nH]3)c2)cc1 — 51-fold lower, 0.63 µM
- COCc1cc(Nc2ccc(Cl)cc2)nc(-c2ccccn2)n1 — 1.6-fold lower, 20 µM
- Cn1cc(CN2CCN(c3ccc4c(c3)CCN(C(=O)[C@H]3C[C@@H]3c3ccccc3)CC4)CC2)cn1 — within 1.5-fold, 25 µM
- COc1ccccc1-c1c(C)[nH]c2nc(N)nc(C)c12 — within 1.5-fold, 25 µM
- COc1ccc(C(=O)Nc2cc(C(F)(F)F)ccc2N2CCOCC2)c(OC)c1 — 3.2-fold lower, 10 µM
- NC(=O)c1ccc(-c2cccc(OCCN3CCN(C4CCCCC4)CC3)c2)cc1 — 2-fold lower, 16 µM
- COc1cc(C2SCC(=O)Nc3c2c(C)nn3-c2nc3ccccc3s2)cc(OC)c1O (stereo not drawn) — 5.1-fold lower, 6.3 µM
- CS(=O)(=O)NC1CCC(Nc2ncc(Br)c(Nc3ccccc3C(N)=O)n2)CC1 (stereo not drawn) — 200-fold lower, 0.16 µM
- O=C(c1ccccc1)N1CCC(C(=O)N2CCC(Oc3ccccc3Cl)CC2)CC1 — 64-fold lower, 0.5 µM
- COc1ccc(-c2nc3ccncc3c(=O)n2CCOc2ccccc2)cc1 — within 1.5-fold, 25 µM
- CNC(=O)C1Cc2ccccc2N1C(=O)Cc1ccc(OC)cc1 (stereo not drawn) — 80-fold lower, 0.4 µM
- CCc1cccc(CC)c1-n1c(SCC(=O)N2CC(=O)Nc3ccccc32)nnc1-c1cccnc1 — 64-fold lower, 0.5 µM
- Cc1ccc2nc(N(Cc3cccnc3)C(=O)CCc3ccccc3)sc2c1 — 2.5-fold lower, 13 µM
- O=C(Nc1ccc(Br)c(Cl)c1)Nc1ccc2c(c1)OCO2 — 4.1-fold lower, 7.9 µM
- Nc1cc(-c2ccc3ncnc(N4CCOCC4)c3c2)cnc1N — 640-fold lower, 0.05 µM
- CN(C)CCN(C)Cc1ccc(Cl)cc1NS(=O)(=O)c1ccc(Cl)c(Cl)c1 — 4.1-fold lower, 7.9 µM
- O=C(CN1CCC2(O)CCCCC2C1c1ccc2c(c1)OCO2)Nc1ccc(Cl)cc1Cl (stereo not drawn) — 2.5-fold lower, 13 µM
- O=C(c1cccc(Nc2ncc(-c3ccc4c(c3)OCO4)cn2)c1)N1CCOCC1 — within 1.5-fold, 25 µM
- CN(C)S(=O)(=O)c1cccc(C(=O)Nc2nc(-c3ccccn3)cs2)c1 — 64-fold lower, 0.5 µM
- COc1ncc(-c2ccc3nccc(-c4ccncc4)c3c2)cc1NS(C)(=O)=O — 100-fold lower, 0.32 µM
- O=C(NCCc1cccnc1)c1csc(-c2ccccc2)n1 — within 1.5-fold, 25 µM
- CCOc1ccc2nc(NC(=O)c3ccc([N+](=O)[O-])s3)sc2c1 — 25-fold lower, 1.3 µM
- CN(C)Cc1ccc(N2CCC(NS(=O)(=O)c3ccc(Cl)cc3)CC2)cc1 — within 1.5-fold, 25 µM
- N#Cc1cc(N2CCCC2=O)ccc1Sc1ccccc1CO — within 1.5-fold, 40 µM
- CCOc1ccc(NC(=O)c2ccc(NC(=O)NC3CCCCC3)cc2)cc1 — 160-fold lower, 0.2 µM
- CC(=O)Nc1ccc(-c2ccnc(Nc3cccc(C#N)c3)n2)cc1 — 51-fold lower, 0.63 µM
- COc1ccc(NC(=O)c2ccc(NC(=O)CN(c3ccccc3C)S(C)(=O)=O)cc2)cc1 — 160-fold lower, 0.2 µM
- CC(=O)Nc1ccc(Nc2nccc(-c3cnn4ncccc34)n2)cc1C(F)(F)F — 1000-fold lower, 0.032 µM
- CCC(=O)Nc1ccc(-c2nc3ccc(Cl)cc3[nH]2)cc1 — 5.1-fold lower, 6.3 µM
- O=C(NCc1nnc2n1CCCCC2)c1csc(-c2ccccc2)n1 — 100-fold lower, 0.32 µM
- O=C(Nc1nc(-c2ccccn2)cs1)C1CCc2ccccc2C1 (stereo not drawn) — 10-fold lower, 3.2 µM
- COc1ccc(Nc2nccc(N(C)c3n[nH]c4c(F)cccc34)n2)cc1S(C)(=O)=O — 5.1-fold lower, 6.3 µM
- Cc1nn(-c2ccccc2)nc1CNC(=O)CN(Cc1ccccn1)Cc1ccccn1 — the same, 32 µM
- COc1cc(-c2noc(CC#N)n2)ccc1OC(F)F — 51-fold lower, 0.63 µM
- CN(C)Cc1cccc(Nc2nccc(-c3ccc(NCCN)c(C#N)c3)n2)c1 — 640-fold lower, 0.05 µM
- CN(C)CCOc1ccc(N2CCN(S(=O)(=O)c3ccc(Cl)cc3)CC2)cc1 — 1.6-fold lower, 20 µM
- Cc1cc(Nc2cc(C3CC3)[nH]n2)nc(N2CCC[C@H]2C(N)=O)n1 — 2500-fold lower, 0.013 µM
- Cn1ccnc1-c1nc(NCc2ccccc2Cl)cc(C2CC2)n1 — 16-fold lower, 2 µM
- O=C(c1cc2cc(Cl)ccc2[nH]1)N1CCCCC1c1cccnc1 (stereo not drawn) — within 1.5-fold, 25 µM
- Nc1ncnc2c1ncn2[C@@H]1O[C@H](CO)C[C@H]1O — 2500-fold lower, 0.013 µM
- CCCCNc1nccc(-c2c(-c3ccc(F)cc3)nn3c(N4CCOCC4)cccc23)n1 — 3.2-fold lower, 10 µM
- COc1ccc(S(=O)(=O)NC(C)C)cc1Nc1ncc(-c2cccc(F)c2)cn1 — 1.6-fold lower, 20 µM

In the case of `O=C(Nc1nc2ccccc2[nH]1)c1ccc2nc[nH]c2c1`, the IC50 is reported as > 40 µM (inactive).
With `COc1ccccc1-n1c(SCC(=O)Nc2ccc3c(c2)OCO3)nc2c(c1=O)SCC2` the IC50 was > 40 µM (inactive).
For `CC(Cn1ccnc1)NC(=O)C=Cc1ccc(Cl)cc1` (stereo not drawn), the IC50 was > 40 µM (inactive).
`CCOc1ccccc1C(=O)Nc1nnc(-c2ccc3c(c2)OCO3)s1` was tested, and the IC50 was > 40 µM (inactive).
`O=C(COc1nn(-c2ccccc2)c2ncccc12)NCc1ccccc1` was tested, and the IC50 was > 40 µM (inactive).
In the case of `CCc1cccc(-n2nc(OCC(=O)NC3CCCC3)c3cccnc32)c1`, the IC50 is reported as > 40 µM (inactive).
With `O=C1CN(C(=O)c2cccc(Nc3ncc(-c4ccc5c(c4)OCO5)cn3)c2)CCN1` the IC50 was > 50 µM (inactive).
With `CCC(c1ccc(F)cc1)n1cncc1-c1cnn(C)c1` (stereo not drawn) the IC50 was > 40 µM (inactive).
For `Cc1[nH]c2ccccc2c(=O)c1Cc1c(C)[nH]c2ccccc2c1=O`, the IC50 was > 40 µM (inactive).
With `Cc1c([N+](=O)[O-])c(C(=O)Nc2sc3c(c2C#N)CCC(C)C3)nn1C` (stereo not drawn) the IC50 was > 40 µM (inactive).
With `CCN(C)Cc1ccc(N2CCC(NS(=O)(=O)c3ccc4c(c3)CCO4)CC2)nc1` the IC50 was > 40 µM (inactive).
For `CN(Cc1ccc(F)cc1)c1ccc(OCC(=O)N2CCCCC2c2cccnc2)nn1` (stereo not drawn), the IC50 was > 40 µM (inactive).
With `O=C(Nc1cccc(Cl)c1)N1CCCCC1c1cccnc1` (stereo not drawn) the IC50 was > 40 µM (inactive).
With `O=C(c1cnn(-c2ccccc2)n1)N1CCCC(n2ccnc2)C1` (stereo not drawn) the IC50 was > 40 µM (inactive).
`CC(C)N(C(=O)CN1C(=O)C(N)C(=O)N(c2ccccc2)c2ccccc21)c1ccccc1` (stereo not drawn) was tested, and the IC50 was > 40 µM (inactive).
For `O=[N+]([O-])c1cccc(Nc2cncc(-c3ccccc3CO)c2)c1`, the IC50 was > 40 µM (inactive).
